From article PMC4142842, “Synthesis of isoprenoid bisphosphonate ethers through C–P bond formations: Potential inhibitors of geranylgeranyl diphosphate synthase” (Beilstein Journal of Organic Chemistry, 2014)
Where two headings read alike, the source gives them in different places.

Experiments:
K562 cells = system: K562 cells; design: method as in PMID 16517172; settings: micromolar DGBP; cited from earlier work
[1] = target: T1, farnesyl diphosphate synthase (FDPS) (Homo sapiens, UniProt P14324); experiment: FDPS enzyme assay (14C-IPP incorporation, GPP substrate); type: biochemical; settings: for IC50: 10 µM GPP, 10 min preincubation
T1 construct: gift of Dr. James E. Dunford (not a commercial vendor)
T1 sequence (P14324 1-419): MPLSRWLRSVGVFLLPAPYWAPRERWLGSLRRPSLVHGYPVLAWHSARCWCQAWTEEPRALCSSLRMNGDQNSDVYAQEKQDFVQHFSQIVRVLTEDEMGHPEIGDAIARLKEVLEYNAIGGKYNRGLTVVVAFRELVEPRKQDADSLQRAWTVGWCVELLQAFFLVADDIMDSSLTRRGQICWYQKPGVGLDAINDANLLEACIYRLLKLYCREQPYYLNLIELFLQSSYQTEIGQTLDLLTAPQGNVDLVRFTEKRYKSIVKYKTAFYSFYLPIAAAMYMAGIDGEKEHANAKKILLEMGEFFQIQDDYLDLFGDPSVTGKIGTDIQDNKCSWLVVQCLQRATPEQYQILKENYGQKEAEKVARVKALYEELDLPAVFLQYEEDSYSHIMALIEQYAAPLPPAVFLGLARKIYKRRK

[2] = target: T1, farnesyl diphosphate synthase (FDPS); design: method as in PMID 17208200; settings: earlier enzyme assays; cited from earlier work
[3] = target: T2, geranylgeranyl diphosphate synthase (GGDPS) (Homo sapiens, UniProt O95749); experiment: GGDPS enzyme assay (14C-IPP incorporation, FPP substrate); type: biochemical; settings: for IC50 / activity against GGDPS (in words): enzyme assay; for IC50: 10 µM FPP, 10 min preincubation
T2 construct: gift of Dr. James E. Dunford (not a commercial vendor)
T2 sequence (O95749 1-300): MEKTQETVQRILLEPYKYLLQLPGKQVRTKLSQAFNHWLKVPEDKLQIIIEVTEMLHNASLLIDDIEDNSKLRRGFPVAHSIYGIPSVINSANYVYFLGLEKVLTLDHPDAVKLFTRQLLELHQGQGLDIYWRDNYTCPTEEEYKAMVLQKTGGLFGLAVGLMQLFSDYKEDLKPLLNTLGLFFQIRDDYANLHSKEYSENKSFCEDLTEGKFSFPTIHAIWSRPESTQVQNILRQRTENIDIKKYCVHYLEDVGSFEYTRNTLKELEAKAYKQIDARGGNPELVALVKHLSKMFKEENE

[4] = target: T2, geranylgeranyl diphosphate synthase (GGDPS); settings: previously reported limited activity; cited from earlier work

IC50 [1] [nM] | IC50 [3] [nM] | activity against FDPS (in words) [1] | SMILES | further results
> 10000 |  |  | CC(C)=CCC/C(C)=C/CC(C/C=C(\C)CCC=C(C)C)(P(=O)(O)O)P(=O)(O)O [Compound 5, digeranyl bisphosphonate] | Rap1a geranylgeranylation (Western blot) (K562 cells): only partially modified; IC50 [2]: > 10000 nM
> 10000 | 408 |  | CC(C)=CCC/C(C)=C/COC(C/C=C(\C)CCC=C(C)C)(P(=O)(O)O)P(=O)(O)O [Compound 6] | 
> 10000 | 238 |  | CC(C)=CCC/C(C)=C/COC(P(=O)(O)O)P(=O)(O)O [Compound 11] | 
 |  | little or no activity | CC(C)=CCOC(P(=O)(O)O)P(=O)(O)O [Compound 14] | activity against GGDPS (in words) [3]: little or no activity
830 | 684 |  | CC(C)=CCC/C(C)=C/CC(OCC=C(C)C)(P(=O)(O)O)P(=O)(O)O [Compound 16] | 
5260 | 4750 | little or no activity | CC(C)=CCOC(CC=C(C)C)(P(=O)(O)O)P(=O)(O)O [Compound 18] | activity against GGDPS (in words) [3]: little or no activity
> 10000 | 274 |  | CC(C)=CCC/C(C)=C/COC(CC=C(C)C)(P(=O)(O)O)P(=O)(O)O [Compound 20] | 
> 10000 | 82 | no activity | CC(C)=CCC/C(C)=C/CC(OCC[C@@H](C)CCC=C(C)C)(P(=O)([O-])[O-])P(=O)([O-])[O-].[Na+].[Na+].[Na+].[Na+] [Compound 24] | fold more potent than the DGBP control (5), GGDPS ([3]; ratio of GGDPS IC50 values): ~ 2.6 fold
 |  |  | CC(C)=CCCC(C)=CCC(P(=O)(O)O)P(=O)(O)O [geranyl bisphosphonate] | activity previously reported (GGDPS inhibition) [4]: 10 µM
